Data published in paper PMC11243693, “Synthesis and Biological Evaluation of New Compounds with Nitroimidazole Moiety” (Molecules, 2024).
Read-outs that look alike come from different tables or passages of the source.

Tests used:
Format in all cases: cell-based
[1] = tested on: Staphylococcus aureus ATCC 43300 methicillin-resistant MRSA; assay: Broth microdilution, S. aureus ATCC 43300 MRSA; conditions: Sa 43300 MRSA; for MBC: read-out: MBC
Protocol: (§1) The antibacterial activity of the obtained thiosemicarbazides and hydrazide–hydrazones was determined by evaluating their ability to inhibit microbial growth in vitro using the broth microdilution method, according to the guidelines of the European Committee on Antimicrobial Susceptibility Testing (EUCAST). The method involved the preparation of microbial suspensions with a standardized density of 0.5 on the McFarland scale (equivalent to 1.5 × 10^8 colony-forming units/mL for bacteria and […] for fungi). A solution of the test substances was then prepared (initial concentration 1000 µg/mL, diluted in sterile Mueller-Hinton broth for bacteria or Mueller-Hinton with 2% glucose for fungi). The test was carried out in 96-well polystyrene flat-bottom plates (Medlab, Poland) with 100 µL of appropriate sterile microbiological medium in each well. The first wells were filled with 200 µL of the test substance, diluted to the initial concentration, and then double-decreasing dilutions were made under aseptic conditions using an automatic pipette. The final step was the addition of a 10-fold diluted microbial suspension of 2 µL. At the same time, the following controls were included: (a) medium control (100 µL of sterile medium without microorganisms added), (b) microbial viability control, (c) test substance control (dilutions without added micro-organisms), (d) positive control of the drug used in the clinic. The plates thus prepared were incubated for 18 ± 2 h at 35 ± 2 °C under conditions optimal for the growth of the test microorganisms. After incubation, the spectrophotometric absorbance at 570 nm in each well of the plate was read. The aim of this part of the study was to determine two parameters: the minimum inhibitory concentration (MIC) and the minimum bactericidal or fungicidal concentration (MBC/MFC) of the test compound. […] The MBC value was determined by adding 5 µL of the contents of each well of the plate to solid sterile MHA or MHA + 2%glc medium for bacteria and fungi, respectively. The area on the plate where 99.9% inhibition of microbial growth was observed indicated the lethal concentration. In addition, the quotient MBC(MFC)/MIC could be determined to assess the nature of the activity of the test substance. If MBC(MFC)/MIC was <4, the test substance was bactericidal/fungicidal, whereas if MBC(MFC)/MIC was ≥4, it was bacteriostatic/fungistatic. Amoxicillin (Glentham Life Sciences, USA) and nystatin (Glentham Life Sciences, USA) were used as the controls for this assay.
(§2) The test was performed either on bacteria, comprising: Gram-positive (Staphylococcus aureus ATCC 25923, Staphylococcus aureus ATCC 6538, Staphylococcus aureus ATCC 43300 methicillin-resistant MRSA, Staphylococcus epidermidis ATCC 12228, Micrococcus luteus ATCC 10240, Bacillus subtilis ATCC 6633, Bacillus cereus ATCC 10876) and Gram-negative (Escherichia coli ATCC 25922, Pseudomonas aeruginosa ATCC 27853, Proteus mirabilis ATCC 12453, Klebsiella pneumoniae ATCC 13883) or yeast (Candida parapsilosis ATCC 22019, Candida glabrata ATCC 90030, Candida krusei ATCC 14243, Candida glabrata ATCC 15126, Candida tropicalis ATCC 1369, Candida auris CDC B11903, Candida lusitaniae ATCC 3449) reference strains from the American Type Culture Collection (ATCC) or the Centers for Disease Control and Prevention (CDC).

[2] = tested on: Staphylococcus aureus ATCC 6538; assay: Broth microdilution, S. aureus ATCC 6538; conditions: Sa 6538
Protocol: as §1, §2

[3] = tested on: Candida tropicalis ATCC 1369; assay: Broth microdilution, C. tropicalis ATCC 1369; conditions: Ct 1369
Protocol: as §1, §2

[4] = tested on: Staphylococcus aureus ATCC 25923; assay: Broth microdilution, S. aureus ATCC 25923; conditions: Sa 25923
Protocol: as §1, §2

[5] = tested on: Candida krusei ATCC 14243; assay: Broth microdilution, C. krusei ATCC 14243; conditions: Ck 14243
Protocol: as §1, §2

[6] = tested on: Staphylococcus epidermidis ATCC 12228; assay: Broth microdilution, S. epidermidis ATCC 12228; conditions: Se 12228; for MBC/MIC Ratio: <4 bactericidal, ≥4 bacteriostatic
Protocol: as §1, §2

[7] = tested on: Bacillus cereus ATCC 10876; assay: Broth microdilution, B. cereus ATCC 10876; conditions: Bc 10876; for MBC: read-out: MBC
Protocol: as §1, §2

[8] = tested on: Candida glabrata ATCC 90030; assay: Broth microdilution, C. glabrata ATCC 90030; conditions: Cg 90030
Protocol: as §1, §2

[9] = tested on: Micrococcus luteus ATCC 10240; assay: Broth microdilution, M. luteus ATCC 10240; conditions: Ml 10240
Protocol: as §1, §2

[10] = tested on: Candida parapsilosis ATCC 22019; assay: Broth microdilution, C. parapsilosis ATCC 22019; conditions: Cp 22019
Protocol: as §1, §2

[11] = tested on: Candida glabrata ATCC 15126; assay: Broth microdilution, C. glabrata ATCC 15126; conditions: Cg 15126
Protocol: as §1, §2

[12] = tested on: Bacillus subtilis ATCC 6633; assay: Broth microdilution, B. subtilis ATCC 6633; conditions: Bs 6633
Protocol: as §1, §2

[13] = tested on: Candida auris CDC B11903; assay: Broth microdilution, C. auris CDC B11903; conditions: Ca B11903
Protocol: as §1, §2

[14] = tested on: Candida lusitaniae ATCC 3449; assay: Broth microdilution, C. lusitaniae ATCC 3449; conditions: Cl 3449
Protocol: as §1, §2

[15] = Staphylococcus aureus, read-out: MIC
[16] = Staphylococcus aureus, ATCC6538, read-out: MBC
[17] = Staphylococcus aureus, ATCC6538, read-out: MIC
[18] = Candida tropicalis, ATCC1369, read-out: MIC
[19] = Staphylococcus aureus, ATCC25923, read-out: MBC
[20] = Staphylococcus aureus, ATCC25923, read-out: MIC
[21] = Pichia kudriavzevii, ATCC14243, read-out: MIC
[22] = Staphylococcus epidermidis, ATCC12228, read-out: MBC
[23] = Staphylococcus epidermidis, ATCC12228, read-out: MIC
[24] = Bacillus cereus, ATCC10876, read-out: MIC
[25] = Nakaseomyces glabratus, ATCC90030, read-out: MIC
[26] = Micrococcus luteus, ATCC10240, read-out: MBC
[27] = Micrococcus luteus, ATCC10240, read-out: MIC
[28] = Lodderomyces parapsilosis, ATCC22019, read-out: MIC
[29] = Nakaseomyces glabratus, ATCC15126, read-out: MIC
[30] = Bacillus subtilis, ATCC6633, read-out: MBC
[31] = Bacillus subtilis, ATCC6633, read-out: MIC
[32] = <4 bactericidal, ≥4 bacteriostatic
[33] = Candidozyma auris, CDCB11903, read-out: MIC
[34] = Clavispora lusitaniae, ATCC3449, read-out: MIC

Cc1cccc(NC(=S)NNC(=O)c2nc([N+](=O)[O-])cn2C)c1 [Compound 16, 1-[(1-methyl-4-nitroimidazol-2-yl)carbonyl]-4-(3-methylphenyl)-thiosemicarbazide]
500 µg/mL: MBC [6, 22] | MIC [6, 23] | MIC [9, 27] | MIC [10, 28] | MBC [12, 30] | MIC [12, 31]
> 1000 µg/mL: MBC ([1]; Staphylococcus aureus) | MBC [2, 16] | MIC [3, 18] | MBC [4, 19] | MIC [5, 21] | MBC ([7]; Bacillus cereus, ATCC10876) | MIC [8, 25] | MBC [9, 26] | MFC ([10]; Lodderomyces parapsilosis, ATCC22019, read-out: MFC) | MIC [11, 29] | MIC [13, 33] | MIC [14, 34]
125 µg/mL: MIC [1, 15]
62.5 µg/mL: MIC [2, 17]
1: MBC/MIC Ratio [6] | MBC/MIC Ratio [12, 32]
250 µg/mL: MIC [4, 20] | MIC [7, 24]

Cn1cc([N+](=O)[O-])nc1C(=O)NNC(=S)Nc1ccccc1 [Compound 2]
1: MBC/MIC Ratio [6] | MBC/MIC Ratio [9, 32]
500 µg/mL: MIC [3] | MIC [4] | MIC [10]
1000 µg/mL: MIC [2] | MBC [6] | MIC [6] | MBC [9] | MIC [9] | MIC [12]
>1000 µg/mL: MIC [1] | MBC [2] | MFC [3] | MBC [4] | MIC [5] | MIC [7] | MIC [8] | MFC [10] | MIC [11] | MBC [12] | MIC [13] | MIC [14]

Cc1ccc(NC(=S)NNC(=O)c2nc([N+](=O)[O-])cn2C)cc1 [Compound 17, 1-[(1-methyl-4-nitroimidazol-2-yl)carbonyl]-4-(4-methylphenyl)thiosemicarbazide]
125 µg/mL: MIC [1, 15] | MBC [2, 16] | MIC [2, 17] | MIC [4, 20]
1: MBC/MIC Ratio [2, 32]
> 1000 µg/mL: MBC ([1]; Staphylococcus aureus) | MFC ([3]; Candida tropicalis, ATCC1369, read-out: MFC) | MBC [4, 19] | MIC [5, 21] | MBC [6, 22] | MBC ([7]; Bacillus cereus, ATCC10876) | MIC [8, 25] | MBC [9, 26] | MIC [10, 28] | MIC [11, 29] | MBC [12, 30] | MIC [13, 33] | MIC [14, 34]
250 µg/mL: MIC [3, 18]
500 µg/mL: MIC [6, 23] | MIC [9, 27] | MIC [12, 31]
62.5 µg/mL: MIC [7, 24]

CC1(C)S[C@@H]2[C@H](NC(=O)[C@H](N)c3ccc(O)cc3)C(=O)N2[C@H]1C(=O)O [AMX, amoxicillin, reference compound]
125 µg/mL: MBC ([7]; Bacillus cereus, ATCC10876) | MIC [7, 24] | MBC [12, 30] | MIC [12, 31]
31.2 µg/mL: MBC ([1]; Staphylococcus aureus) | MIC [1, 15]
0.98 µg/mL: MBC [2, 16] | MIC [2, 17] | MBC [4, 19] | MIC [4, 20] | MBC [6, 22] | MIC [6, 23] | MBC [9, 26] | MIC [9, 27]

C[C@@H]1[C@H](O)[C@@H](C)/C=C/C=C/CC/C=C/C=C/C=C/C=C/C(O[C@H]2O[C@H](C)[C@@H](O)[C@H](N)[C@@H]2O)CC2O[C@](O)(CC(O)C(O)CCC(O)CC(O)CC(O)CC(=O)O[C@H]1C)CC(O)C2C(=O)O (some centres unmarked) [NYS, nystatin, reference compound]
3.125 µg/mL: MFC [8] | MFC [11] | MFC [14]
12.5 µg/mL: MFC [5] | MIC [5] | MFC [10] | MIC [10]
0.5 µg/mL: MFC [3]
6.25 µg/mL: MIC [13]
<0.781 µg/mL: MIC [3]
15.625 µg/mL: MFC [13]
1.56 µg/mL: MIC [8] | MIC [11] | MIC [14]
